Laboratory results as given in US20240391870A1 (Arcturus Therapeutics, Inc., priority 2023, published 2024).
Like-named read-outs stand apart in the source and are kept apart here.

Columns and labels:
[1] = test system: hEPO; assay: hEPO mRNA expression evaluation (hEPO-LNPs); assay type: in vivo, Balb/c mice; details: Table 3; 0.3 mg/kg
[2] = Lipid nanoparticle size, PDI and encapsulation; assay type: physicochemical; details: Table 3; for Size (nm): lipid nanoparticle; for EE %: lipid nanoparticle encapsulation
Method: In the context of nucleic acids, full encapsulation may be determined by performing a membrane-impermeable fluorescent dye exclusion assay, which uses a dye that has enhanced fluorescence when associated with nucleic acid. Encapsulation is determined by adding the dye to a lipid formulation, measuring the resulting fluorescence, and comparing it to the fluorescence observed upon addition of a small amount of nonionic detergent. Detergent-mediated disruption of the lipid layer releases the encapsulated nucleic acid, allowing it to interact with the membrane-impermeable dye. Nucleic acid encapsulation may be calculated as E=(I0−I)/I0, where I and I0 refer to the fluorescence intensities before and after the addition of detergent.

[3] = Measured pKa in the indicated formulation
Method: Measured pKa values were determined based on the pH measured in the indicated formulation (i.e., EPO or FVII formulation).

[4] = In vivo biodegradability assay (lipid in liver); details: Table 3; liver tissue, 0.3 mg/kg dose
[5] = test system: factor VII; assay: Factor VII knock down evaluation (LNP with FVII siRNA); assay type: in vivo, Balb/C mice; details: Table 3; 0.03 mg/kg
Summary of the method: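 Female Balb/C mice, 7–8 weeks old, received FVII siRNA lipid nanoparticles intravenously at 0.03 or 0.01 mg/kg. Plasma was collected 48 h later and FVII protein measured by chromogenic assay at 405 nm against a control plasma calibration curve. Levels are relative to saline-treated controls.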

[6] = Lipid nanoparticle size, PDI and encapsulation; assay type: physicochemical; details: Table 3
[7] = mouse, in vivo

Row | SMILES | EPO expression in ng/mL @ 0.3 mg/kg [1] | Size (nm) [2] | EE % [2] | pKa [3] | Invivo lipid degradability ng/g of Liver tissue @ 0.3 mg/kg dose [4] | FVII KD % @ 0.03 mg/kg [5] | PDI [6] | Invivo lipid degradability ng/g of Liver tissue @ 0.3 mg/kg dose [7]
1 | CN(C)CCCSC(=O)N(CCCC(=O)OCC(C)(COC(=O)CCC1CCCCC1)COC(=O)CCC1CCCCC1)CCCC(=O)OCC(C)(COC(=O)CCC1CCCCC1)COC(=O)CCC1CCCCC1 [Lipid 53, ((4,4′-((((3-(Dimethylamino)propyl)thio)carbonyl)azanediyl)bis(butanoyl))bis(oxy))bis(methylene))bis(2-methylpropane-2,1,3-triyl)tetrakis(3 cyclohexylpropanoate)] | 15844.04 ng/mL | 85.94 nm | 93.1% | 6.93 | 14200 ng/g | 85.45% | 0.076 | 
2 | CCCCCCCC(=O)OCC(C)(COC(=O)CCCCCCC)COC(=O)CCCN(CCCC(=O)OCC(C)(COC(=O)CCCCCCC)COC(=O)CCCCCCC)C(=O)SCCCN(C)C [Lipid 54] | 25548.45 ng/mL | 76.03 nm | 90.9% | 7.3 | BLOQ | 86.88% | 0.072 | 
3 | CCCCCCC(C)(C)C(=O)OCC(COC(=O)CCCN(CCCC(=O)OCC(COC(=O)C(C)(C)CCCCCC)COC(=O)C(C)(C)CCCCCC)C(=O)SCCCN(C)C)COC(=O)C(C)(C)CCCCCC [Lipid 55] | 10312.89 ng/mL | 71.78 nm | 93.0% | 6.59 | 63300 ng/g | 72.17% | 0.103 | 
4 | CCCCCC(C)(C)C(=O)OCC(C)(COC(=O)CCCN(CCCC(=O)OCC(C)(COC(=O)C(C)(C)CCCCC)COC(=O)C(C)(C)CCCCC)C(=O)SCCCN(C)C)COC(=O)C(C)(C)CCCCC [Lipid 56] | 5463.76 ng/mL | 67.34 nm | 91.5% | 6.55 | 81900 ng/g | 46.3% | 0.081 | 
5 | Cc1ccc(CCC(C)C(=O)OCC(COC(=O)C(C)CCc2ccc(C)cc2)OC(=O)CCCN(CCCC(=O)OC(COC(=O)C(C)CCc2ccc(C)cc2)COC(=O)C(C)CCc2ccc(C)cc2)C(=O)SCCCN(C)C)cc1 (stereo not shown) [Lipid 63, ((4,4′-((((3-(dimethylamino)propyl)thio)carbonyl)azanediyl)bis(butanoyl))bis(oxy))bis(propane-2,1,3-triyl)tetrakis(2-methyl-4-(p-tolyl)butanoate)] | 4601 ng/mL | 82.65 nm | 85.9% |  |  | 76.17% | 0.046 | 603 ± 57.6 ng/g
